In patent US11771671B2, “Use of (1S,3S)-3-amino-4-(difluoromethylidene) cyclopentane-1-carboxylic acid and (S)-3-amino-4-(difluoromethylenyl)cyclopent-1-ene-1-carboxylic acid in the treatment of tinnitus, acute sensorineural hearing loss, Meniere's disease, Tourette's syndrome, attention deficit hyperactivity disorder and …” (Ovid Therapeutics Inc., priority 2018, dated 2023):

Assay: plasma pharmacokinetics
Assay type: in vivo

N[C@H]1C[C@@H](C(=O)O)CC1=C(F)F [(1S,3S)-3-amino-4-(difluoromethylidene)cyclopentane-1-carboxylic acid]
AUCs dose proportionality (dose range of 5 mg-500 mg): greater than proportional increase
C. dose proportionality (dose range of 5 mg-500 mg): increases in a dose proportional manner
half-life (plasma, read-out: plasma elimination half-life): 4 to 6 h
